Measurements as given in patent US20240208934A1, “ULK1/2 INHIBITORS AND THEIR USE THEREOF” (LifeArc, priority 2021, published 2024).

System: ULK
Assay: ULK radiometric assay (33P incorporation onto MBP substrate, glass fiber capture filter)
Conditions: ULK Biochemical activity; 20 uM ATP, 0.2 mg/mL MBP; averages of at least two independent experiments
Protocol: ULK activity was measured using a radiometric assay, to measure the incorporation of radiolabelled ^33P onto MBP substrate using a glass fiber capture filter method. Reaction conditions were 0.2 mg/mL MBP, 20 uM ATP (0.25 μCi/well), 50 mM Tris HCl, pH7.5, 10 mM MgCl2, 0.1% beta-mercaptoethanol, 0.1 mM EGTA, 0.01% BSA. Ten point Half log Compound dilution series were prepared in 100% DMSO and added to the reaction to give final assay concentration of 10% DMSO. Compounds were tested in duplicate and values normalized to 10% DMSO only controls. The data were fitted to a four parameter fit equation and the IC50 values shown are averages of at least two independent experiments.

IC50 [µM] | Compound
< 0.2 | O=C1CCCCN1CCCNc1nc(Nc2cc3c(cc2Cl)CNCC3)ncc1C(F)(F)F [Example 1, 1-(3-(2-(7-Chloro-1,2,3,4-tetrahydroisoquinolin-6-ylamino)-5(trifluoromethyl)pyrimidin-4-ylamino)propyl) piperidin-2-one]
< 0.2 | O=C(CCNc1nc(Nc2cc3c(cc2Cl)CNCC3)ncc1C(F)(F)F)N[C@@H](C1CC1)C(F)(F)F [Example 2, (S)-3-(2-(7-chloro-1,2,3,4-tetrahydroisoquinolin-6-ylamino)-5-(trifluoromethyl)pyrimidin-4-ylamino)-N-(1-cyclopropyl-2,2,2-trifluoroethyl)propanamide]
< 0.2 | COc1nn(CCN(C)C)cc1Nc1ncc(C(F)(F)F)c(NCCCN2CCCCC2=O)n1 [Example 3, 1-(3-((2-((1-(2-(Dimethylamino)ethyl)-3-methoxy-1H-pyrazol-4-yl)amino)-5-(trifluoromethyl)pyrimidin-4-yl)amino)propyl) piperidin-2-one]
< 0.2 | COc1cc2c(cc1Nc1ncc(C(F)(F)F)c(NCCCN3CCCCC3=O)n1)CCNC2 [Example 4, 1-(3-((2-((7-Methoxy-1,2,3,4-tetrahydroisoquinolin-6-yl)amino)-5-(trifluoromethyl)pyrimidin-4-yl)amino)propyl)piperidin-2-one]
≥ 1 | Fc1cccc(Nc2ncc(C(F)(F)F)c(NCCCN3CCCC3)n2)c1 [Example 5, N2-(3-fluorophenyl)-N4-(3-(pyrrolidin-1-yl)propyl)-5-(trifluoromethyl)pyrimidine-2,4-diamine]
0.2 to 1 | CN1CCc2cc(Nc3ncc(C(F)(F)F)c(NCCCN4CCCC4)n3)ccc2C1 [Example 6, N2-(2-methyl-1,2,3,4-tetrahydroisoquinolin-6-yl)-N4-(3-(pyrrolidin-1-yl)propyl)-5-(trifluoromethyl)pyrimidine-2,4-diamine]
< 0.2 | CN1CCc2cc(Nc3ncc(C(F)(F)F)c(NCCCN4CCCCC4=O)n3)ccc2C1 [Example 7, 1-(3-((2-((2-Methyl-1,2,3,4-tetrahydroisoquinolin-6-yl)amino)-5-(trifluoromethyl)pyrimidin-4-yl)amino)propyl)piperidin-2-one]
< 0.2 | CN1CCC(Oc2cccc(Nc3ncc(C(F)(F)F)c(NCCCN4CCCCC4=O)n3)c2)CC1 [Example 8, 1-[3-[[2-[3-[(1-Methyl-4-piperidyl)oxy]anilino]-5-(trifluoromethyl)pyrimidin-4-yl]amino]propyl]piperidin-2-one]
< 0.2 | CN1CCc2cc(Nc3ncc(C4CC4)c(NCCCN4CCCC4=O)n3)ccc2C1 [Example 9, 1-[3-[[5-cyclopropyl-2-[(2-methyl-3,4-dihydro-1H-isoquinolin-6-yl)amino]pyrimidin-4-yl]amino]propyl]pyrrolidin-2-one]
< 0.2 | CN1CCc2ccc(Nc3ncc(C4CC4)c(NCCCN4CCCC4=O)n3)cc2C1 [Example 10, 1-(3-((5-Cyclopropyl-2-((2-methyl-1,2,3,4-tetrahydroisoquinolin-7-yl)amino)pyrimidin-4-yl)amino)propyl)pyrrolidin-2-one]
< 0.2 | CN1CCc2cc(Nc3ncc(C4CC4)c(NCCCN4CCCCC4=O)n3)ccc2C1 [Example 11, 1-(3-((5-Cyclopropyl-2-((2-methyl-1,2,3,4-tetrahydroisoquinolin-6-yl)amino)pyrimidin-4-yl)amino)propyl)piperidin-2-one]
< 0.2 | CN1CCc2ccc(Nc3ncc(C4CC4)c(NCCCN4CCCCC4=O)n3)cc2C1 [Example 12, 1-(3-((5-Cyclopropyl-2-((2-methyl-1,2,3,4-tetrahydroisoquinolin-7-yl)amino)pyrimidin-4-yl)amino)propyl)piperidin-2-one]
< 0.2 | CN(C)Cc1cccc(Nc2ncc(C3CC3)c(NCCCN3CCCCC3=O)n2)c1 [Example 13, 1-(3-(5-Cyclopropyl-2-(3-((dimethylamino)methyl)phenylamino)pyrimidin-4-ylamino)propyl) piperidin-2-one]
≥ 1 | CN1CCc2cc(Nc3ncc(C4CC4)c(NCCCN4CCCC4)n3)ccc2C1 [Example 15, 5-Cyclopropyl-N2-(2-methyl-1,2,3,4-tetrahydroisoquinolin-6-yl)-N4-(3-(pyrrolidin-1-yl)propyl)pyrimidine-2,4-diamine]
< 0.2 | CN1CCC(Oc2cccc(Nc3ncc(C4CC4)c(NCCCN4CCCCC4=O)n3)c2)CC1 [Example 16, 1-(3-((5-Cyclopropyl-2-((3-((1-methylpiperidin-4-yl)oxy)phenyl)amino)pyrimidin-4-yl)amino)propyl)piperidin-2-one]
< 0.2 | CN1CCc2cc(Nc3ncc(C4CC4)c(NC4CC4)n3)ccc2C1 [Example 17, N4,5-dicyclopropyl-N2-(2-methyl-1,2,3,4-tetrahydroisoquinolin-6-yl)pyrimidine-2,4-diamine]

IC50 [µM] | Compound
< 0.2 | CN1CCc2ccc(Nc3ncc(C4CC4)c(NC4CC4)n3)cc2C1 [Example 18, N4,5-dicyclopropyl-N2-(2-methyl-1,2,3,4-tetrahydroisoquinolin-7-yl)pyrimidine-2,4-diamine]
< 0.2 | O=C1CCCCN1CCCNc1nc(Nc2ccc3c(c2)CCNC3)ncc1C(F)(F)F [Example 19, 1-[3-[[2-(1,2,3,4-Tetrahydroisoquinolin-6-ylamino)-5-(trifluoromethyl)pyrimidin-4-yl]amino]propyl]piperidin-2-one]
< 0.2 | COc1cc2c(cc1Nc1ncc(C(F)(F)F)c(NCCCN3CCCCC3=O)n1)CNCC2 [Example 20, 1-[3-[[2-[(6-Methoxy-1,2,3,4-tetrahydroisoquinolin-7-yl)amino]-5-(trifluoromethyl)pyrimidin-4-yl]amino]propyl]piperidin-2-one]
< 0.2 | CCOc1cc2c(cc1Nc1ncc(C(F)(F)F)c(NCCCN3CCCCC3=O)n1)CNCC2 [Example 21, 1-[3-[[2-[(6-Ethoxy-1,2,3,4-tetrahydroisoquinolin-7-yl)amino]-5-(trifluoromethyl)pyrimidin-4-yl]amino]propyl]piperidin-2-one]
≥ 1 | COc1ccc(N2CCNCC2)cc1Nc1ncc(C(F)(F)F)c(NCCCN2CCCCC2=O)n1 [Example 22, 4-[4-methoxy-3-[[4-[3-(2-oxo-1-piperidyl)propylamino]-5-(trifluoromethyl)pyrimidin-2-yl]amino]phenyl]piperazine]
< 0.2 | Cc1cc2c(cc1Nc1ncc(C(F)(F)F)c(NCCCN3CCCCC3=O)n1)CNCC2 [Example 23, 6-methyl-7-[[4-[3-(2-oxo-1-piperidyl)propylamino]-5-(trifluoromethyl)pyrimidin-2-yl]amino]-3,4-dihydro-1H-isoquinoline]
< 0.2 | COc1cc2c(cc1Nc1ncc(C(F)(F)F)c(NCCCN3CCCCC3=O)n1)CN(C)CC2 [Example 24, 1-[3-[[2-[(6-Methoxy-2-methyl-3,4-dihydro-1H-isoquinolin-7-yl)amino]-5-(trifluoromethyl)pyrimidin-4-yl]amino]propyl]piperidin-2-one]
< 0.2 | O=C1CCCCN1CCCNc1nc(Nc2ccc3c(c2)COCC3)ncc1C(F)(F)F [Example 25, 1-[3-[[2-(Isochroman-7-ylamino)-5-(trifluoromethyl)pyrimidin-4-yl]amino]propyl]piperidin-2-one]
< 0.2 | O=C1CCCCN1CCCNc1nc(Nc2cc(CO)ccc2Cl)ncc1C(F)(F)F [Example 26, 1-[3-[[2-[2-Chloro-5-(hydroxymethyl)anilino]-5-(trifluoromethyl)pyrimidin-4-yl]amino]propyl]piperidin-2-one]
< 0.2 | COc1nn(C)cc1Nc1ncc(C(F)(F)F)c(NCCCN2CCCCC2=O)n1 [Example 27, 1-[3-[[2-[(3-Methoxy-1-methyl-pyrazol-4-yl)amino]-5-(trifluoromethyl)pyrimidin-4-yl]amino]propyl]piperidin-2-one]
< 0.2 | COc1nn(CC(C)(C)O)cc1Nc1ncc(C(F)(F)F)c(NCCCN2CCCCC2=O)n1 [Example 28]
≥ 1 | COc1ccccc1Nc1ncc(C(F)(F)F)c(NCCCN2CCCCC2=O)n1 [Example 30, 1-[3-[[2-(2-Methoxyanilino)-5-(trifluoromethyl)pyrimidin-4-yl]amino]propyl]piperidin-2-one]
≥ 1 | O=C1CCCCN1CCCNc1nc(Nc2cccc3c2OCC3)ncc1C(F)(F)F [Example 31, 1-[3-[[2-(2,3-Dihydrobenzofuran-7-ylamino)-5-(trifluoromethyl)pyrimidin-4-yl]amino]propyl]piperidin-2-one]
≥ 1 | COc1ccc(N2CCOCC2)cc1Nc1ncc(C(F)(F)F)c(NCCCN2CCCCC2=O)n1 [Example 32, 1-[3-[[2-(2-Methoxy-5-morpholino-anilino)-5-(trifluoromethyl)pyrimidin-4-yl]amino]propyl]piperidin-2-one]
≥ 1 | COc1cc2c(cc1Nc1ncc(C(F)(F)F)c(NCCCN3CCCCC3=O)n1)C(=O)NCC2 [Example 33, 6-Methoxy-7-[[4-[3-(2-oxo-1-piperidyl)propylamino]-5-(trifluoromethyl)pyrimidin-2-yl]amino]-3,4-dihydro-2H-isoquinolin-1-one]
≥ 1 | COCc1ccc(Nc2ncc(C(F)(F)F)c(NCCCN3CCCCC3=O)n2)c(OC)c1 [Example 34, 1-[3-[[2-[2-Methoxy-4-(methoxymethyl)anilino]-5-(trifluoromethyl)pyrimidin-4-yl]amino]propyl]piperidin-2-one]

Compound | IC50 [µM]
CN1CCC(O)(c2ccc(Nc3ncc(C4CC4)c(NCCCN4CCCCC4=O)n3)cc2)CC1 [Example 14, 1-(3-((5-Cyclopropyl-2-((4-(4-hydroxy-1-methylpiperidin-4-yl)phenyl)amino)pyrimidin-4-yl)amino)propyl)piperidin-2-one] | < 0.2
